Source: US20230286973A1, “PROTEIN SECRETION INHIBITORS” (KEZAR LIFE SCIENCES, priority 2020, published 2023)

What was measured:
[1] = system: TNFα-FL/Gaussia Luciferase; assay: Dox Induced TNFα-FL-Gluc Assay; type: cell-based; conditions: for IC50: 24 hr Dox induction, 293FRT/TO cells, read-out: 24 hr Dox Inducible TNFaFLGluc 293FRT/TO: Mean IC50; for 24 hr Dox Inducible TNFaFLGluc 293FRT/TO: TNF/PD1: ratio of TNFaFLGluc IC50 to PD1ssGluc IC50
In short: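 Doxycycline-inducible Gaussia luciferase-tagged full-length TNFα (1-233) was expressed in stable Flp-In 293 T-REx cells. Compounds were co-added with doxycycline and incubated at 37 °C, 5% CO2.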

[2] = system: multiple myeloma cell line U266B1; assay: U266 Cell Viability Assay; type: cell-based, human; conditions: Homo sapiens, U-266, 48 h, U266B1 cells, Celltiter-Glo
In short: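 Viability is measured as luciferase signal from CellTiter-Glo following a 48-hour incubation with compound at 37° C. under 5% CO2. Where structures lack drawn stereochemistry, values refer to stereoisomer mixtures.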

[3] = Liver Microsome Stability Assay (monkey); conditions: monkey liver microsomes, with NADPH, 1.0 uM compound
Procedure: (§1) Stability of a compound was assessed in the presence of liver microsomes from various sources—mouse, rat, monkey and human liver microsomes. 1.0 uM compound, 0.4% DMSO in 0.1 M Potassium Phosphate with 1.0 mg/mL liver microsomes, were incubated at 37° C. with or without 1 mM NADPH. The samples were quenched at 0, and 30 minutes.

[4] = system: HER3-ss+4aa/Gaussia Luciferase; assay: Dox-Induced Her3-ss-Gluc Assay; type: cell-based; conditions: 24 hr Dox induction; 293FRT/TO cells; read-out: 24 hr Dox Inducible Her3(ss + 4)Gluc 293FRT/TO: Mean IC50
In short: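 Reporter line: Flp-In 293 T-REx, T-REx-regulated HER3-ss+4aa fused to Gaussia luciferase. Compound co-added with doxycycline after overnight plating, 37° C., 5% CO2.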

[5] = Liver Microsome Stability Assay (mouse); conditions: mouse liver microsomes, with NADPH, 1.0 uM compound
Procedure: as §1

[6] = system: multiple myeloma cell line NCI-H929; assay: H929 Cell Viability Assay; type: cell-based, human; conditions: Homo sapiens, NCI-H929, 48 h, NCI-H929 cells, Celltiter-Glo
In short: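 Viability is scored by CellTiter-Glo luminescence following a 48-hour treatment at 37° C. Data for structures shown without stereochemistry refer to stereoisomer mixtures.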

[7] = Liver Microsome Stability Assay (rat); conditions: rat liver microsomes, with NADPH, 1.0 uM compound
Procedure: as §1

[8] = system: IL-2-FL/Gaussia Luciferase; assay: Dox Induced IL2-FL-Gluc Assay; type: cell-based; conditions: for IC50: 24 hr Dox induction, 293FRT/TO cells, read-out: 24 hr Dox Inducible IL2FLGluc 293FRT/TO: Mean IC50; for 24 hr Dox Inducible IL2FLGluc 293FRT/TO: IL2/PD1: ratio of IL2FLGluc IC50 to PD1ssGluc IC50
In short: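 Doxycycline induces an IL-2(1-153)–Gaussia luciferase fusion in a stable Flp-In 293 T-REx line. Compound exposure runs alongside induction at 37° C.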

[9] = Liver Microsome Stability Assay (human); conditions: human liver microsomes, with NADPH, 1.0 uM compound
Procedure: as §1

[10] = system: PD1-ss+10aa/Gaussia Luciferase; assay: Dox-Induced PD1-ss-Gluc Assay; type: cell-based; conditions: 24 hr Dox induction; 293FRT/TO cells; read-out: 24 hr Dox Inducible PD1ssGluc 293FRT/TO: Mean IC50
In short: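 Doxycycline-induced expression of a PD1-ss+10aa/Gaussia luciferase reporter is measured in stable Flp-In 293 T-REx cells. Compound dilutions containing doxycycline are added one day after plating and incubated at 37 °C, 5% CO2. Values for unassigned stereocentres refer to stereoisomer mixtures.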

| IC50 [1] | EC50 [2] | Liver Microsome Stability (Multiple Species): Monkey - % Remaining after 30 min w/NADPH [3] | IC50 [4] | Liver Microsome Stability (Multiple Species): Mouse - % Remaining after 30 min w/NADPH [5] | EC50 [6] | Liver Microsome Stability (Multiple Species): Rat - % Remaining after 30 min w/NADPH [7] | IC50 [8] | Liver Microsome Stability (Multiple Species): Human - % Remaining after 30 min w/NADPH [9] | IC50 [10] | SMILES | 24 hr Dox Inducible TNFaFLGluc 293FRT/TO: TNF/PD1 [1] | 24 hr Dox Inducible IL2FLGluc 293FRT/TO: IL2/PD1 [8] |
| --- | --- | --- | --- | --- | --- | --- | --- | --- | --- | --- | --- | --- |
| 3.53 µM | > 25 µM | 0.47% | 0.61 µM | 5.24% | 24.2 µM | 7.12% | 0.875 µM | 0.69% | 0.26 µM | CN1c2ccccc2CCC1/C=C/c1csc(NC(=O)c2cccn2Cc2ccncc2)n1 (stereo not drawn) [Compound B8, (E)-N-(4-(2-(1-methyl-1,2,3,4-tetrahydroquinolin-2-yl)vinyl)thiazol-2-yl)-1-(pyridin-4-ylmethyl)-1H-pyrrole-2-carboxamide] | 13.6 | 3.4 |
| > 25 µM | 10.4 µM | 0.17% | 1.61 µM | 0.31% | 15.2 µM | 3.44% | 1.85 µM | 0.41% | 0.91 µM | O=C(Nc1nc(/C=C/C2CN(S(=O)(=O)c3ccccc3)CCO2)cs1)c1cccn1Cc1ccncc1 (stereo not drawn) [Compound B9, (E)-N-(4-(2-(4-(phenylsulfonyl)morpholin-2-yl)vinyl)thiazol-2-yl)-1-(pyridin-4-ylmethyl)-1H-pyrrole-2-carboxamide] | >27.5 | 2 |
| > 25 µM | > 25 µM | 0.1% | > 25 µM | 9.22% | > 25 µM | 2.71% | > 25 µM | 1.05% | 20 µM | CC(=O)N1CCOC(/C=C/c2csc(NC(=O)c3cccn3Cc3ccncc3)n2)C1 (stereo not drawn) [Compound B10, (E)-N-(4-(2-(4-acetylmorpholin-2-yl)vinyl)thiazol-2-yl)-1-(pyridin-4-ylmethyl)-1H-pyrrole-2-carboxamide] | >1.25 | 1.3 |
| > 25 µM | > 25 µM | 4.16% | > 25 µM | 1.41% | > 25 µM | 11% | > 25 µM | 3.28% | > 25 µM | O=C1NC(/C=C/c2csc(NC(=O)c3cccn3Cc3ccncc3)n2)CO1 (stereo not drawn) [Compound B12] | <=>1.00 | 1 |
| > 25 µM | > 25 µM | 0.6% | > 25 µM | 4.96% | > 25 µM | 6.37% | > 25 µM | 0.48% | > 25 µM | O=C1CCCC(/C=C/c2csc(NC(=O)c3cccn3Cc3ccncc3)n2)N1 (stereo not drawn) [Compound B13, (E)-N-(4-(2-(6-oxopiperidin-2-yl)vinyl)thiazol-2-yl)-1-(pyridin-4-ylmethyl)-1H-pyrrole-2-carboxamide] | <=>1.00 | 1 |
| 4.7 µM | > 25 µM | 0.38% | 1.1 µM | 3.02% | > 25 µM | 2.09% | 1.56 µM | 0.82% | 0.0882 µM | O=C(Nc1nc(/C=C/C2CN(c3ccccc3)CCO2)cs1)c1cccn1Cc1ccncc1 (stereo not drawn) [Compound B18, (E)-N-(4-(2-(4-phenylmorpholin-2-yl)vinyl)thiazol-2-yl)-1-(pyridin-4-ylmethyl)-1H-pyrrole-2-carboxamide] | 53.3 | 18 |
| > 25 µM | > 25 µM | 1.26% | 5.56 µM | 4.32% | 24.1 µM | 0.28% | 9.19 µM | 0.68% | 0.0637 µM | Cc1ocnc1/C=C/c1csc(NC(=O)c2cccn2Cc2ccncc2)n1 [Compound B33, (E)-N-(4-(2-(5-methyloxazol-4-yl)vinyl)thiazol-2-yl)-1-(pyridin-4-ylmethyl)-1H-pyrrole-2-carboxamide] | >392 | 140 |
| > 25 µM | > 25 µM | 1.77% | > 25 µM | 0.97% | > 25 µM | 0.87% | > 25 µM | 0.75% | 0.778 µM | O=C(Nc1nc(/C=C/c2ncco2)cs1)c1cccn1Cc1ccncc1 [Compound B34, (E)-N-(4-(2-(oxazol-2-yl)vinyl)thiazol-2-yl)-1-(pyridin-4-ylmethyl)-1H-pyrrole-2-carboxamide] | >32.1 | >32 |
| > 25 µM | > 25 µM | 1.04% | > 25 µM | 2.61% | > 25 µM | 0.46% | > 25 µM | 2.88% | 0.466 µM | Cc1cnc(/C=C/c2csc(NC(=O)c3cccn3Cc3ccncc3)n2)o1 [Compound B35, (E)-N-(4-(2-(5-methyloxazol-2-yl)vinyl)thiazol-2-yl)-1-(pyridin-4-ylmethyl)-1H-pyrrole-2-carboxamide] | >53.7 | >54 |
| 3.75 µM | 7.33 µM | 3.93% | 0.773 µM | 9.8% | 7.03 µM | 2.95% | 2.51 µM | 0.7% | 0.173 µM | CC(C)(C)c1nc(/C=C/c2csc(NC(=O)c3cccn3Cc3ccncc3)n2)co1 [Compound B36, (E)-N-(4-(2-(2-(tert-butyl)oxazol-4-yl)vinyl)thiazol-2-yl)-1-(pyridin-4-ylmethyl)-1H-pyrrole-2-carboxamide] | 21.7 | 14 |
